Patent US6696441B1, “Inhibition of p53-induced stress response” (The Regents of the University of California, priority 2000, dated 2004)

Tests used:
[1] = test system: malignant lymphocytes from two patients with chronic lymphocytic leukemia [CLL]; test: Effect on B-CLL viability (PI exclusion by FACS, MTT); type: cell-based, human; settings: 3 days culture; viable cells by PI FACS and MTT; concentrations up to 100 micromolar; FIG. 1
Text: (§1) The malignant lymphocytes from two patients with chronic lymphocytic leukemia [CLL] were isolated by ficoll-hypaque sedimentation and suspended at a density of 1 million cells per milliliter in RPMI 1640 medium supplemented with 10% fetal bovine serum. Two hundred microliter aliquots of cells were dispersed in the wells of culture plates containing the indicated final concentrations of either PFT-α (“PFT-open”) or IBT (PFT-closed). After 3 days culture, viable cells were enumerated by fluorescence-activated cell sorting [FACS] after staining with propidium iodide [PI]. Viable cells excluded the dye [open circles]. In addition, cell metabolism was assessed by the ability of the cells to […] the tetrazolium dye MTT [closed squares].

[2] = test system: Chronic lymphocytic leukemia [CLL] cells; test: Protection against spontaneous apoptosis and apoptosis induced by fludarabine (PI negative and DiOC6 high cells by FACS); type: cell-based, human; settings: one micromolar, 3 days culture, FIG. 2; for effect on untreated CLL cells (spontaneous apoptosis): PI negative and DiOC6 high cells
Text: as §1
Chronic lymphocytic leukemia [CLL] cells were cultured for 3 days as described in Example 2. Some of the cultures were supplemented with one micromolar of PFT-open or PFT-closed, as indicated. In the experiment shown in the bottom panel of FIG. 2, some of the cultures also contained the cytotoxic adenine nucleoside analog fludarabine [abbreviated F-AraA]. Fludarabine is the first line treatment for CLL, and the toxicity of the drug is dependent upon the p53 pathway. To assess healthy, viable cells, staining was done with both PI, as indicated in Example 2, and with the mitochondrial dye DiOC6. Cells that were both PI negative and DIOC6 high were enumerated by FACS.

[3] = Cyclization of PFT-α to IBT in DMSO stock diluted with water, reversed phase HPLC at 25° C. over time; type: physicochemical
Experimental: (§2) The preparation of PFT-α was accomplished as shown in Scheme 1 by reacting 4-methyl-2-bromoacetophenone with 2-amino-4,5,6,7-tetrahydro-benzothiazole. Upon recrystallization of the PFT-α from isopropyl alcohol, it was noticed that PFT-α readily ring-closed completely to the imidazo[2,1-b]benzothiazole (IBT). Therefore, a subsequent investigation was undertaken to study the propensity of PFT-α to ring-close in protic solvents. […] Thus, PFT-α was dissolved in DMSO and water dilutions were made from this stock.

[4] = Ring closure of PFT-α in protic solvents at room temperature; type: physicochemical
Experimental: as §2

[5] = nmr time course of PFT-α in DMSO-d6; type: physicochemical; settings: time course in DMSO-d6, proton nmr
mice = settings: cited from earlier work

SMILES	CLL survival / toxicity [1]	effect on untreated CLL cells (spontaneous apoptosis) [2]	protective effect on CLL cells treated with F-AraA (fludarabine) ([2]; with F-AraA, compared with PFT-α)	% cyclized to IBT ([3]; Time 0 h) [%]	% cyclized to IBT ([3]; Time 18 h) [%]	% cyclized to IBT ([3]; Time 48 h) [%]	propensity to ring-close in protic solvents [4]	conversion of PFT-α to IBT [5]	protection from lethal genotoxic stress (mice; 6-8 Gy of gamma radiation)	promotion of tumor formation (mice)
Cc1ccc(-c2cn3c4c(sc3n2)CCCC4)cc1 [IBT]	non-toxic	nearly equivalent effects	less protective effects							
Cc1ccc(C(=O)Cn2c3c(sc2=N)CCCC3)cc1 [PFT-α]	dose-dependently reduced CLL survival	nearly equivalent effects		5	28	42	begins cyclizing at room temperature immediately upon dissolution in protic solvents	spontaneous conversion of PFT-α to IBT	protected mice from lethal genotoxic stress	without itself promoting the formation of tumors
